What is called Ki is a measure of affinity in units of concentration, obtained from inhibition or displacement. Read a high Ki as a looser hold on the target.

Each structure is given as a SMILES string.

Our source for the Ki values is ChEMBL document CHEMBL1138021, “Isoxazole carboxylic acids as protein tyrosine phosphatase 1B (PTP1B) inhibitors” (Bioorg Med Chem Lett, 2004).

Experiment [1] deals with T1, Tyrosine-protein phosphatase non-receptor type 1 (Mus musculus, UniProt P35821).
T1 sequence (P35821 whole entry): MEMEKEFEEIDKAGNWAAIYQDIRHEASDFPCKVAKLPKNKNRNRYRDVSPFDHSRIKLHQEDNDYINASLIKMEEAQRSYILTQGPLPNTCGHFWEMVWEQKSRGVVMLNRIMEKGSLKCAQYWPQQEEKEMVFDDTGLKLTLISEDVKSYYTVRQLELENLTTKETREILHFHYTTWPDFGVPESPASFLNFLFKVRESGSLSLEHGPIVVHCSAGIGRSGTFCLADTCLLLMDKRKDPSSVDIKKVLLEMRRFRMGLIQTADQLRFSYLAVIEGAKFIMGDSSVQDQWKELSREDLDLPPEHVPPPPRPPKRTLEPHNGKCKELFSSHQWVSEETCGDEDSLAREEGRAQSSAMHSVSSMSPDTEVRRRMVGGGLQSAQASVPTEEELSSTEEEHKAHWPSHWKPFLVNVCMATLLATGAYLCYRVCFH
The experiment in a line: Binding affinity for mouse protein-tyrosine phosphatase 1B (PTP1B) expressed in COS 7 cells. The experiment is classed as cell-based.

The target in experiment [2] is T2, Tyrosine-protein phosphatase non-receptor type 2 (Homo sapiens, UniProt P17706).
T2 sequence (P17706 whole entry): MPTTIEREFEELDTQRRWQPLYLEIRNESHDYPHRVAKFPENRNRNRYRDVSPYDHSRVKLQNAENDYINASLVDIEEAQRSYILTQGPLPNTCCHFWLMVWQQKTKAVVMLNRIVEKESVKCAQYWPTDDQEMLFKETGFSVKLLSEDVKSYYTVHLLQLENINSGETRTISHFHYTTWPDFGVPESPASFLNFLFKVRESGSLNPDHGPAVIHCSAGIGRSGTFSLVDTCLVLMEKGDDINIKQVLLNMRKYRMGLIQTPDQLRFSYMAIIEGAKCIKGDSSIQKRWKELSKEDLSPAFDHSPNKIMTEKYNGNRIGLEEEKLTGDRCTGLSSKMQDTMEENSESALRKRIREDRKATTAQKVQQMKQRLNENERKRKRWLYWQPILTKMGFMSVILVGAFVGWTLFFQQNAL
Kind of experiment: Binding affinity for T-cell Protein tyrosine phosphatase (TCPTP).

For the molecule `COC(=O)c1c(O)cccc1OC/C=C/c1ccc2c(c1)-c1onc(C(=O)O)c1CC2`, in experiment [1], the affinity corresponds to a Ki of 11.5 µM. This counts as double-digit micromolar.

The molecule `COC(=O)c1c(O)cccc1OCCCc1cccc(-c2cc(C(=O)O)no2)c1` yielded a Ki in experiment [1] of 23 µM. Compared with the last molecule, the Ki is about 2-fold higher.

For `COC(=O)c1c(O)cccc1OCCNc1cccc(-c2cc(C(=O)O)no2)c1`, the Ki in experiment [1] was 60.3 µM. This Ki is about 2.6-fold higher than that of the molecule before.

`COC(=O)c1c(O)cccc1OCC(O)Cc1cccc(-c2cc(C(=O)O)no2)c1` (stereo not drawn): in experiment [1], the Ki was determined as 122 µM.

As to `COC(=O)c1c(O)cccc1OC/C=C/c1cccc(-c2onc(C(=O)O)c2CO)c1`, the Ki in experiment [2] came out at 19.2 µM; in experiment [1] it was 0.92 µM.

Molecule `COC(=O)c1c(O)cccc1OCC(=O)Nc1cccc(-c2cc(C(=O)O)no2)c1` returned an inhibition constant Ki in experiment [1] of 216 µM.

Consider `COC(=O)c1c(O)cccc1OC/C=C/c1cccc(-c2onc(C(=O)O)c2N)c1`, for which, in experiment [1], affinity was put at a Ki of 2.1 µM.
